Source: article PMC7374170, “TRIB3-EGFR interaction promotes lung cancer progression and defines a therapeutic target” (Nature Communications, 2020)

What was measured:
[1] = test system: cell surface EGFR in A549 cells; assay: Cell surface EGFR by flow cytometry, A549; format: cell-based, human
Protocol: Fig. 2 TRIB3 promotes EGFR recycling to enhance its stability and signaling activity. a Control or TRIB3-silenced A549 cells were treated with cycloheximide (CHX) (10 µg ml^−1) at indicated intervals and protein stability of EGFR was analyzed by IB. Data are means ± SEM of four independent assays. b A549 cells stably expressed control-shRNA or TRIB3-shRNA plasmid were stimulated with or without EGF (100 ng ml^−1) for 1 h. Indicated proteins were analyzed by IB analysis. Data represent means ± SEM of three independent assays. c Confocal microscopy images show the distribution of EGFR and early endosome antigen 1 (EEA-1) in control or TRIB3-silenced A549 cells before and after 0.5 or 1 h of EGF (100 ng ml^−1) stimulation. Quantification of EGFR and EEA-1 colocalization was shown as Pearson’s coefficient. Data are means ± SEM of three independent assays. d Quantitative analyses of cell surface EGFR in A549 cells stably expressed control-shRNA or TRIB3-shRNA1. Cells were preincubated with DMSO or 10 μM monensin for 4 h, and then treated with or without EGF (100 ng ml^−1) for another 1 h. The Mean Fluorescence Intensity (MFI) of EGFR on cell surface was detected by flow cytometry analysis. Top: representative flow cytometry data. Bottom: the data were normalized to A549/control-shRNA cells without EGF stimulation, which was considered as 100% MFI signal. Data are means ± SEM of three independent assays. e EGFR recycling was detected in A549 cells stably expressed control-shRNA or TRIB3-shRNA1 plasmid. Data are means ± SEM of three independent assays. f Colocalization analysis of EGFR with Rab11 and LAMP-1 before or after 30 min EGF treatment in control and TRIB3-silenced A549 cells. Quantification of EGFR/Rab11 or EGFR/LAMP-1 colocalization was shown as Pearson’s coefficient. Data represent means ± SEM of three independent assays. Statistical significance between two groups was determined with two-tailed Student’s t test. Statistical significance among groups was determined by one-way ANOVA test. Source data are provided as a Source Data file. […]
Live cells were stained with Alexa-Fluro 488 anti-EGFR antibody (Santa Cruz, R-1, #sc-101
AF488, 1:100). Analysis was performed using a PARTEC EPICSXL (Germany) and data was
analyzed using FCS Express 6. […]

proteinase K = assay: Metabolic stability of peptide: proteinase K resistance; format: in vitro ADME; settings: panel Fig.S6e
Protocol: Metabolic stability of peptide
The sample solution consisted of 15 µl peptide solution (1 mM ) and 585 µl Tris-HCl (pH = 7.4) buffer. Pepsin solution (4,500 U ml-1, 8 µl) or proteinase K solution (4 ng ml-1, 8 µl) was added to the sample solution and incubated at 25℃ for indicated times. Peptide concentrations were […]
detected by Exactive™ Plus Orbitrap (Thermo Fisher Scientific, USA). […]

NCI-H1975 cells [2] = assay: Immunoblot of EGFR, HER2 and receptor tyrosine kinases, NCI-H1975 cells; format: cell-based, human
Protocol: Data are means ± SEM, n = 8. d, EGFR and its signaling proteins in xenograft tumors from NCI-H1975 inoculated mice were detected by IB. e, Stem cell markers in xenograft tumors from NCI-H1975 inoculated mice mice were detected by IB. f, Expressions of TRIB3 and EGFR were detected by IB in tumor samples from PDX mice. g, NCI-H1975 cells were treated with 5 µM of the indicated peptides or 0.5 µM AZD9291for 24 hr. The expression of indicated proteins was detected with IB. h, NCI-H1975 cells were treated with 5 µM of the indicated peptides for 24 hr. The expression of several receptor tyrosine kinases was detected with IB. i, NCI-H1975 cells were pretreated with 5 µM of the indicated peptides for 12 hr. The cells were then incubated with CHX (10 µg ml-1) for indicated times. The indicated proteins were detected by IB. Data are means ± SEM of 3 independent assays. Data in d-h are representatives of 3 independent assays. Statistical significance between two groups was determined by two-tailed Student’s t-test; Statistical significance among groups was determined by one-way ANOVA test. Source data are provided as a Source Data ﬁle.
Immunoblotting, Immunostaining and Immunohistochemistry
Proteins were extracted from cells and tissues using a RIPA lysis buffer (Applygen
Technologies Inc. Beijing, China). Equal protein amounts were loaded for SDS-PAGE,
followed by transfer to polyvinylidene difluoride membranes, and subjected to immunoblot
analysis. Signals were detected by Tanon 5200 chemiluminescent imaging system (Tanon,
Shanghai, China). The western blots were scanning densitometry using Gel Pro Analyzer 3.2
and calculated relative to GAPDH. If not specifically indicated, the data was presented as means
± SEMs of 3 independent biological experiments.

[3] = test system: EGFR signaling proteins in xenograft tumors; assay: Immunoblot / CO-IP of xenograft tumor tissue; format: in vivo; settings: NCI-H1975 inoculated mice, long-term treatment
Protocol: Data in a–d are presented as means ± SEM, n = 8. e The EGFR–TRIB3 or EGFR–PKCα interaction in xenograft tumors from indicated mice were detected with CO-IP assays. […] Data are means ± SEM of three independent assays. Statistical significance between two groups was determined with two-tailed Student’s t test. Statistical significance among groups was determined by one-way ANOVA test.
Data are means ± SEM, n = 8. d, EGFR and its signaling proteins in xenograft tumors from NCI-H1975 inoculated mice were detected by IB. e, Stem cell markers in xenograft tumors from NCI-H1975 inoculated mice mice were detected by IB. f, Expressions of TRIB3 and EGFR were detected by IB in tumor samples from PDX mice. g, NCI-H1975 cells were treated with 5 µM of the indicated peptides or 0.5 µM AZD9291for 24 hr. The expression of indicated proteins was detected with IB. h, NCI-H1975 cells were treated with 5 µM of the indicated peptides for 24 hr. The expression of several receptor tyrosine kinases was detected with IB. i, NCI-H1975 cells were pretreated with 5 µM of the indicated peptides for 12 hr. […] The indicated proteins were detected by IB. […] Statistical significance between two groups was determined by two-tailed Student’s t-test; Statistical significance among groups was determined by one-way ANOVA test. […]
analysis. Signals were detected by Tanon 5200 chemiluminescent imaging system (Tanon, […]

NCI-H1975 cells [4] = assay: NCI-H1975 subcutaneous xenograft (tumor growth, tumor weight, metastasis); format: in vivo, BALB/c nude mice; settings: dose not given
A549 cells = assay: A549 subcutaneous xenograft (tumor growth, tumor weight, liver metastasis); format: in vivo, BALB/c nude mice; settings: dose not given
Source text: Fig. 7 Targeting EGFR stability inhibits lung cancer initiation and progression. a A549 tumor growth curves under different treatment. b Quantitative analysis of metastatic nodule numbers from mice as described in a. c NCI-H1975 tumor growth curves under different treatment. d Quantitative analysis of metastatic nodule numbers from mice as described in c. Data in a–d are presented as means ± SEM, n = 8. e The EGFR–TRIB3 or EGFR–PKCα interaction in xenograft tumors from indicated mice were detected with CO-IP assays. […] Statistical difference was determined by two-sided log-rank test, n = 14. i Survival curves for mice orthotopically lung implanted with NCI-H1975 cells under indicated treatment. […] Data are means ± SEM of three independent assays. Statistical significance between two groups was determined with two-tailed Student’s t test. Statistical significance among groups was determined by one-way ANOVA test. Source data are provided as a Source Data file. […]
a, Quantified tumor weight from mice subcutaneously inoculated with A549 cells under indicated treatment after tumor inoculation. Data are means ± SEM, n = 8. b, Representative graphs of liver and immunohistochemical staining of the liver sections with anti-hMitochondria […]
IB. Data are means ± SEM of 3 independent assays. Data in d-h are representatives of 3 independent assays. Statistical significance between two groups was determined by two-tailed Student’s t-test; Statistical significance among groups was determined by one-way ANOVA test. Source data are provided as a Source Data ﬁle.
For the subcutaneous tumor model, A549 (1.0×10 5), NCI-H1975 (3.0×105) or patient-derived NSCLC cancer cells (4.0×105) were injected subcutaneously into the right flank of each mouse to establish the NSCLC xenograft model. When average tumor volume reached about 100 mm3, mice were randomized into various groups for different sets of experiments. Tumor growth was monitored twice weekly with a caliper. Tumor volume (TV) was calculated using the formula: […]

[5] = H1975 cells, treatment for 12 hr

EGF: epidermal growth factor used as stimulus, 100 ng ml−1
Cell Surface EGFR(%MFI) ([1]; A549/Control-shRNA, DMSO or 10 μM monensin 4 h, then EGF 100 ng ml−1 1 h, flow cytometry, A549/control-shRNA without EGF = 100%, replicate 1): 80.5481 %MFI
Cell Surface EGFR(%MFI) ([1]; A549/Control-shRNA, same treatment, replicate 2): 86.3646 %MFI
Cell Surface EGFR(%MFI) ([1]; A549/Control-shRNA, same treatment, replicate 3): 89 %MFI
Cell Surface EGFR(%MFI) ([1]; A549/TRIB3-shRNA, DMSO or 10 μM monensin 4 h, then EGF 100 ng ml−1 1 h, flow cytometry, A549/control-shRNA without EGF = 100%, replicate 1): 27.82 %MFI
Cell Surface EGFR(%MFI) ([1]; A549/TRIB3-shRNA, same treatment, replicate 2): 26.66 %MFI
Cell Surface EGFR(%MFI) ([1]; A549/TRIB3-shRNA, same treatment, replicate 3): 25.66 %MFI

CC[C@H](C)[C@H](NC(=O)[C@H](CCCNC(=N)N)NC(=O)[C@H](CC(C)C)NC(=O)[C@H](CC(C)C)NC(=O)[C@H](C)NC(=O)[C@H](CCC(N)=O)NC(=O)[C@@H](N)CC(N)=O)C(=O)N[C@@H](CC(C)C)C(=O)N[C@@H](CCCNC(=N)N)C(=O)N[C@@H](CCC(=O)O)C(=O)N[C@H](C(=O)N[C@@H](CCC(=O)O)C(=O)N[C@@H](Cc1ccccc1)C(=O)N[C@@H](CCCCN)C(=O)N[C@@H](CCCCN)C(=O)O)[C@@H](C)O [JGZ]
Fraction Intact (%) (proteinase K; time 45 min, replicate 1): 15.4158%
Fraction Intact (%) (proteinase K; time 45 min, replicate 2): 19.3884%
Fraction Intact (%) (proteinase K; time 45 min, replicate 3): 17.4109%
Fraction Intact (%) (proteinase K; time 90 min, replicate 1): 4.517%
Fraction Intact (%) (proteinase K; time 90 min, replicate 2): 5.842%
Fraction Intact (%) (proteinase K; time 90 min, replicate 3): 5.149%
Fraction Intact (%) (proteinase K; time 135 min, replicate 1): 1.978%
Fraction Intact (%) (proteinase K; time 135 min, replicate 2): 2.87%
Fraction Intact (%) (proteinase K; time 135 min, replicate 3): 2.235%
Fraction Intact (%) (proteinase K; time 180 min, replicate 1): 0.9859%
Fraction Intact (%) (proteinase K; time 180 min, replicate 2): 1.636%
Fraction Intact (%) (proteinase K; time 180 min, replicate 3): 1.16%
Fraction Intact (%) (proteinase K; time 225 min, replicate 1): 0.5923%
Fraction Intact (%) (proteinase K; time 225 min, replicate 2): 0.9865%
Fraction Intact (%) (proteinase K; time 225 min, replicate 3): 0.582%
Fraction Intact (%) (proteinase K; time 270 min, replicate 1): 0.003342%
Fraction Intact (%) (proteinase K; time 270 min, replicate 2): 0.3276%
Fraction Intact (%) (proteinase K; time 270 min, replicate 3): 0.1279%
Fraction Intact (%) (proteinase K; time 360 min, replicate 1): 0%
Fraction Intact (%) (proteinase K; time 360 min, replicate 2): 0.07064%
Fraction Intact (%) (proteinase K; time 360 min, replicate 3): 0.09951%
Fraction Intact (%) (proteinase K; time 450 min, replicate 1): 0%
Fraction Intact (%) (proteinase K; time 450 min, replicate 2): 0.04231%
Fraction Intact (%) (proteinase K; time 450 min, replicate 3): 0.01388%
Fraction Intact (%) (proteinase K; time 540 min, replicate 1): 0%
Fraction Intact (%) (proteinase K; time 540 min, replicate 2): 0.01049%
Fraction Intact (%) (proteinase K; time 540 min, replicate 3): 0.003119%

C=CC(=O)Nc1cc(Nc2nccc(-c3cn(C)c4ccccc34)n2)c(OC)cc1N(C)CCN(C)C [AZD9291]
expression of pEGFR T654, PKCα, TRIB3 and EGFR (NCI-H1975 cells [2]; [5]): had no effect
pEGFR Y1068 (NCI-H1975 cells [2]; [5]): markedly reduced
phosphorylation and expression of HER2 (NCI-H1975 cells [2]; NCI-H1975 cells, 5 µM peptide or 0.5 µM AZD9291, 24 hr): suppressive effect on HER2 phosphorylation
expression / phosphorylation of STAT3, STAT5 (and ERK1/2) in xenograft tumor tissue [3]: upregulated the expression and phosphorylation of STAT3, STAT5, and ERK1/2
expression of EGFR and TRIB3 in xenograft tumor tissue [3]: reduced TRIB3 and EGFR expression
Tumor Weight (NCI-H1975 cells [4]; animal 1): 0.09 g
Tumor Weight (NCI-H1975 cells [4]; animal 2): 0.11 g
Tumor Weight (NCI-H1975 cells [4]; animal 3): 0.04 g
Tumor Weight (NCI-H1975 cells [4]; animal 4): 0.05 g
Tumor Weight (NCI-H1975 cells [4]; animal 5): 0.07 g
Tumor Weight (NCI-H1975 cells [4]; animal 6): 0.08 g
Tumor Weight (NCI-H1975 cells [4]; animal 7): 0.02 g
Tumor Weight (NCI-H1975 cells [4]; animal 8): 0.08 g

COc1cc2ncnc(Nc3ccc(F)c(Cl)c3)c2cc1OCCCN1CCOCC1 [gefitinib]
Tumor Weight (A549 cells; animal 1): 0.95 g
Tumor Weight (A549 cells; animal 2): 0.28 g
Tumor Weight (A549 cells; animal 3): 0.5 g
Tumor Weight (A549 cells; animal 4): 0.76 g
Tumor Weight (A549 cells; animal 5): 0.71 g
Tumor Weight (A549 cells; animal 6): 0.63 g
Tumor Weight (A549 cells; animal 7): 0.92 g
Tumor Weight (A549 cells; animal 8): 0.87 g
Tumor Weight (NCI-H1975 cells [4]; animal 1): 0.19 g
Tumor Weight (NCI-H1975 cells [4]; animal 2): 0.56 g
Tumor Weight (NCI-H1975 cells [4]; animal 3): 0.23 g
Tumor Weight (NCI-H1975 cells [4]; animal 4): 0.63 g
Tumor Weight (NCI-H1975 cells [4]; animal 5): 0.13 g
Tumor Weight (NCI-H1975 cells [4]; animal 6): 0.48 g
Tumor Weight (NCI-H1975 cells [4]; animal 7): 0.33 g
Tumor Weight (NCI-H1975 cells [4]; animal 8): 0.37 g
